Assay results published in EPA's ToxRefDB 2.

Legend:
[1] = tested on: mouse; details: Carcinogenicity, other, Oral, Feed, dose end: 105 week, group: systemic
[2] = tested on: rat; details: Prenatal developmental toxicity study, Oral, Gavage/Intubation, dose end: 16 GD
[3] = tested on: rat; details: Subchronic oral toxicity in rodents, Feed, dose end: 3 month, group: systemic
[4] = tested on: dog; details: Subchronic oral toxicity in nonrodent, beagle, Feed, dose end: 13 week, group: systemic, systemic / pathology microscopic / kidney / pyelonephritis
[5] = tested on: dog; details: Chronic toxicity, beagle, Oral, Feed, dose end: 104 week, group: systemic
[6] = tested on: rat; details: Combined chronic toxicity/carcinogenicity, wistar, Oral, Feed, dose end: 24 month, group: systemic
[7] = tested on: rat; details: Multigenerational reproductive toxicity study, sprague dawley, Oral, Feed, dose end: 2 generation
[8] = tested on: dog; details: Chronic toxicity, beagle, Oral, Feed, dose end: 52 week, group: systemic
[9] = tested on: mouse; details: Carcinogenicity, cd1, Oral, Feed, dose end: 20 month, group: systemic
[10] = tested on: mouse; details: Carcinogenicity; other; Oral; Feed; dose end: 18 month; group: systemic; systemic / pathology microscopic / liver / hypertrophy + systemic / pathology microscopic / liver / necrosis
[11] = tested on: dog; details: Subchronic oral toxicity in nonrodent, beagle, Feed, dose end: 13 week, group: systemic, systemic / clinical chemistry / alanine aminotransferase (alt/sgpt) / alanine aminotransferase (alt/sgpt) + systemic / clinical chemistry / …
[12] = tested on: dog; details: Chronic toxicity; beagle; Oral; Feed; dose end: 52 week; group: systemic; systemic / organ weight / liver / absolute + systemic / organ weight / liver / relative to body weight
[13] = tested on: rat; details: Combined chronic toxicity/carcinogenicity; fischer; Oral; Feed; dose end: 104 week; group: systemic; systemic / hematology / methemoglobin / methemoglobin + systemic / pathology microscopic / kidney / mineralization + systemic / pathology …
[14] = tested on: rat; details: Prenatal developmental toxicity study, sprague dawley, Oral, Gavage/Intubation, dose end: 15 GD
[15] = tested on: rat; details: Multigenerational reproductive toxicity study, sprague dawley, Oral, Feed, dose end: 2 generation; remark: listed apart in the source
[16] = tested on: rabbit; details: Prenatal developmental toxicity study, new zealand white, Oral, Gavage/Intubation, dose end: 18 GD
[17] = tested on: rat; details: Subchronic oral toxicity in rodents, fischer, Feed, dose end: 84 day, group: systemic, systemic / clinical chemistry / thyroxine (t4) / thyroxine (t4)
[18] = tested on: mouse; details: Subchronic oral toxicity in rodents, cd1, Feed, dose end: 13 week, group: systemic, systemic / pathology microscopic / liver / cytomegaly + systemic / pathology microscopic / spleen / hematopoietic cell proliferation + …
[19] = systemic / pathology microscopic / liver / focal cellular change + systemic / pathology microscopic / liver / hypertrophy + systemic / …
[20] = systemic / pathology microscopic / liver / hypertrophy
[21] = group: developmental, developmental / developmental malformation / bone / incomplete ossification + systemic / in life observation / body weight / fetal weight
[22] = group: maternal, reproductive / reproductive performance / postimplantation loss / postimplantation loss + systemic / in life observation / body weight / …
[23] = systemic / clinical chemistry / lipids, total / lipids, total + systemic / organ weight / ovary / relative to body weight + systemic / organ…
[24] = systemic / in life observation / body weight / body weight + systemic / in life observation / body weight / body weight gain
[25] = group: offspring, developmental / offspring survival late / [other] / [other]
[26] = group: parental, systemic / organ weight / kidney / relative to body weight + systemic / organ weight / spleen / absolute + systemic / organ weight / spleen…
[27] = group: parental, systemic / organ weight / liver / absolute + systemic / organ weight / liver / relative to body weight
[28] = systemic / in life observation / body weight / body weight gain
[29] = systemic / pathology microscopic / eye / cataract
[30] = systemic / pathology microscopic / eye / cataract + systemic / hematology / erythrocyte (rbc) count differential / erythrocyte (rbc) + …
[31] = group: developmental, developmental / developmental malformation / bone / delayed ossification + developmental / developmental malformation / bone / full …
[32] = group: maternal, systemic / in life observation / body weight / body weight gain + systemic / in life observation / body weight / body weight + systemic / in…
[33] = group: offspring, developmental / offspring survival late / viability index / viability index + reproductive / offspring survival early / offspring survival …
[34] = group: parental, systemic / pathology microscopic / liver / congestion
[35] = group: developmental, developmental / developmental malformation / bone / full supernumerary + developmental / developmental malformation / bone / supernumerary
[36] = group: developmental, developmental / developmental malformation / bone / full supernumerary + developmental / developmental malformation / bone / supernumerary…
[37] = group: maternal, systemic / pathology microscopic / liver / hypertrophy + systemic / pathology microscopic / liver / vacuolization
[38] = group: maternal, systemic / pathology microscopic / liver / hypertrophy + systemic / pathology microscopic / liver / vacuolization + systemic / in life …
[39] = total + systemic / clinical chemistry / phosphorus / phosphorus + systemic…

For CCOC(=O)C(C)Oc1ccc(Oc2nc3ccc(Cl)cc3o2)cc1 (configuration not stated) [Fenoxaprop-ethyl], the LOAEL [1, 19] was 16.6 mg/kg/day, the NOAEL [1, 19] was 5.7 mg/kg/day and the LEL [1, 20] was 5.7 mg/kg/day. The NEL [1, 20] was under 5.7 mg/kg/day, the LEL [2, 21] was 100 mg/kg/day and the LOAEL [2, 21] was 100 mg/kg/day. The NEL [2, 21] was 32 mg/kg/day, the NOAEL [2, 21] was 32 mg/kg/day and the LEL [2, 22] was 100 mg/kg/day. It also gave an LOAEL [2, 22] of 100 mg/kg/day, an NEL [2, 22] of 32 mg/kg/day and an NOAEL [2, 22] of 32 mg/kg/day. The LEL [3, 23] was 1 mg/kg/day, the NEL [3, 23] was under 1 mg/kg/day and the LOAEL ([3]; systemic / organ weight / adrenal gland / relative to body weight) was 4 mg/kg/day. It also gave an NOAEL ([3]; systemic / organ weight / adrenal gland / relative to body weight + systemic / clinical chemistry / cholesterol / cholesterol + systemic / …) of 1 mg/kg/day, an LEL [4] of 2 mg/kg/day and an LOAEL [4] of 2 mg/kg/day. The NEL [4] was 0.4 mg/kg/day, the NOAEL [4] was 0.4 mg/kg/day and the LEL ([5]; systemic / in life observation / body weight / body weight) was 0.375 mg/kg/day. It also gave an LOAEL [5, 24] of 1.88 mg/kg/day, an NEL [5, 24] of 0.075 mg/kg/day and an NOAEL [5, 24] of 0.375 mg/kg/day. The LOAEL ([6]; systemic / clinical chemistry / cholesterol / cholesterol + systemic / clinical chemistry / lipids, total / lipids, total) was 9 mg/kg/day, the NOAEL ([6]; systemic / clinical chemistry / cholesterol / cholesterol + systemic / clinical chemistry / lipids, total / lipids, total + systemic / organ…) was 1.5 mg/kg/day and the NEL ([6]; systemic / clinical chemistry / cholesterol / cholesterol + systemic / hematology / leukocyte (wbc) count differential / leukocyte (wbc) + …) was 0.25 mg/kg/day. It also gave an LEL ([6]; systemic / clinical chemistry / cholesterol / cholesterol + systemic / pathology microscopic / liver / glycogen liberation + systemic / …) of 1.5 mg/kg/day, an LEL [7, 25] of 0.25 mg/kg/day and an LOAEL [7, 25] of 0.25 mg/kg/day. The NEL [7, 25] was under 0.25 mg/kg/day, the NOAEL [7, 25] was under 0.25 mg/kg/day and the LEL [7, 26] was 1.94 mg/kg/day. For the same compound, the NEL [7, 26] was 0.33 mg/kg/day, the LOAEL [7, 27] was 9.05 mg/kg/day and the NOAEL [7, 27] was 1.53 mg/kg/day.

In the case of CC(C)N(C(=O)COc1nnc(C(F)(F)F)s1)c1ccc(F)cc1 [Flufenacet], the LOAEL ([8]; systemic / clinical chemistry / alanine aminotransferase (alt/sgpt) / alanine aminotransferase (alt/sgpt) + systemic / clinical chemistry / …) is reported as 26.8 mg/kg/day, the LEL [8, 28] is reported as 1.14 mg/kg/day and the NEL [8, 28] is reported as under 1.14 mg/kg/day. The NOAEL ([8]; systemic / in life observation / body weight / body weight gain + systemic / clinical chemistry / alanine aminotransferase (alt/sgpt) / …) was 1.14 mg/kg/day, the LOAEL [9, 29] was 7.4 mg/kg/day and the NOAEL [9, 29] was under 7.4 mg/kg/day. For the same compound, the LEL [9, 30] was 7.4 mg/kg/day, the NEL [9, 30] was under 7.4 mg/kg/day and the LEL [10] was 2.1 mg/kg/day. The LOAEL [10] was 2.1 mg/kg/day, the NEL [10] was under 2.1 mg/kg/day and the NOAEL [10] was under 2.1 mg/kg/day. It also gave an LEL [11] of 1.67 mg/kg/day, an LOAEL [11] of 6.9 mg/kg/day and an NEL [11] of under 1.67 mg/kg/day. It also gave an NOAEL [11] of 1.7 mg/kg/day, an LEL [12] of 17.3 mg/kg/day and an LOAEL [12] of 17.3 mg/kg/day. It also gave an NEL [12] of 3.15 mg/kg/day, an NOAEL [12] of 3.15 mg/kg/day and an LEL [13] of 1.2 mg/kg/day. The LOAEL [13] was 1.2 mg/kg/day, the NEL [13] was under 1.2 mg/kg/day and the NOAEL [13] was under 1.2 mg/kg/day. For the same compound, the LEL [14, 31] was 125 mg/kg/day, the LOAEL [14, 31] was 125 mg/kg/day and the NEL [14, 31] was 25 mg/kg/day. For the same compound, the NOAEL [14, 31] was 25 mg/kg/day, the LOAEL ([14]; group: maternal, systemic / in life observation / body weight / body weight gain) was 125 mg/kg/day and the LEL [14, 32] was 125 mg/kg/day. It also gave an NEL [14, 32] of 25 mg/kg/day, an NOAEL [14, 32] of 25 mg/kg/day and an LEL [15, 33] of 7.3 mg/kg/day. The LOAEL [15, 33] was 7.3 mg/kg/day, the NEL [15, 33] was 1.4 mg/kg/day and the NOAEL [15, 33] was 1.4 mg/kg/day. For the same compound, the LEL [15, 34] was 1.4 mg/kg/day, the NEL [15, 34] was under 1.4 mg/kg/day and the LOAEL ([15]; group: parental, systemic / pathology microscopic / liver / hypertrophy) was 7.3 mg/kg/day. It also gave an NOAEL ([15]; group: parental, systemic / pathology microscopic / liver / hypertrophy + systemic / pathology microscopic / liver / congestion) of 1.4 mg/kg/day, an LEL [16, 35] of 125 mg/kg/day and an LOAEL [16, 35] of 125 mg/kg/day. It also gave an NEL [16, 36] of 25 mg/kg/day, an NOAEL [16, 36] of 25 mg/kg/day and an LEL [16, 37] of 25 mg/kg/day. It also gave an LOAEL [16, 37] of 25 mg/kg/day, an NEL [16, 38] of 5 mg/kg/day and an NOAEL [16, 38] of 5 mg/kg/day. It also gave an LOAEL ([17]; total) of 6 mg/kg/day, an NOAEL ([17]; total) of under 6 mg/kg/day and an LEL [17, 39] of 6 mg/kg/day. For the same compound, the NEL [17, 39] was under 6 mg/kg/day, the LEL [18] was 64.2 mg/kg/day and the LOAEL [18] was 64.2 mg/kg/day. The NEL [18] was 18.2 mg/kg/day and the NOAEL [18] was 18.2 mg/kg/day.
